Structures are written as SMILES. Like-named read-outs stand apart in the source and are kept apart here.

Data on eight molecules can be found in PMC11940194, “Synthesis, Antiproliferative Activity, and ADME Profiling of Novel Racemic and Optically Pure Aryl-Substituted Purines and Purine Bioisosteres” (Biomolecules, 2025).

Data set [1] relates to normal skin fibroblasts (HFF-1). Further details: method as in PMID 29271659. The conditions noted are these: toxicity to normal cells; read-out: IC50 normal cells of analog without linker; cited from earlier work.
In data set [2] the test system is breast adenocarcinoma (MCF7) cells. Put plainly: Antiproliferative MTT assay, MCF-7. The data set is classed as cell-based, human. The conditions noted are these: Homo sapiens, MCF7; 72 h incubation, MTT; mean ± SD. The procedure, abridged: (§1)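 3000 cells/well (tumour) or 5000 (fibroblasts), DMEM/MEM + 10% FBS, 37 °C. Cpd 0.01–100 µM, 72 h. MTT; IC50 via linear regression; n = 4 × 2 expts.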

In data set [3] the test system is pancreatic ductal adenocarcinoma (CFPAC-1) cells. Put plainly: Antiproliferative MTT assay, CFPAC-1. The data set is classed as cell-based, human. The conditions noted are these: Homo sapiens, CFPAC-1, 72 h, 72 h incubation, MTT; mean ± SD. The method, boiled down:
as §1
In general terms: Tetrazolium dyes change colour on reduction, which living cells bring about.

Data set [4] concerns colorectal carcinoma (HT-29) cells. Put plainly: Antiproliferative MTT assay, HT-29. To be noted: for IC50: Homo sapiens, HT-29, 72 h, 72 h incubation, MTT, mean ± SD. The data set is classed as cell-based, human. The method, boiled down:
as §1

Data set [5] relates to hepatocellular carcinoma (HepG2) cells. Put plainly: Antiproliferative MTT assay, HepG2. Format: cell-based, human. The conditions noted are these: for IC50: Homo sapiens, HepG2, 72 h, 72 h incubation, MTT, mean ± SD. The method, boiled down: as §1
In data set [6] the test system is normal skin fibroblasts (HFF-1). Put plainly: Cytotoxicity MTT assay, normal skin fibroblasts. To be noted: Homo sapiens, HFF-1, 72 h, 72 h incubation, mean ± SD. Format: cell-based, human. The method, boiled down:
as §1

Data set [7] deals with MCF-7, CFPAC-1, HT-29, HepG2 tumor cell lines and HFF-1 fibroblasts. Put plainly: Antiproliferative activity, whole cell line panel. The data set is classed as cell-based, human. To be noted: tested cell lines. As to the method:
The human ATCC tumor cell lines breast adenocarcinoma (MCF7), colorectal carcinoma (HT-29), pancreatic ductal adenocarcinoma (CFPAC-1), hepatocellular carcinoma (HepG2), and normal skin fibroblasts (HFF) derived from ATCC (American Type Culture Collection) were cultured in Dulbecco’s Modified Eagle Medium (DMEM) or Minimum Essential Medium (MEM) supplemented with 10% fetal bovine serum (FBS), 2 mM L-glutamine, 100 U/mL penicillin, and 100 µg/mL streptomycin (Lonza, Basel, Switzerland) in a humidified atmosphere with 5% CO2 at 37 °C. For the experiment, carcinoma cell lines and normal human cell lines were seeded in 96-well microtiter plates at a density of 3000 cells per well and 5000 cells per well, respectively, depending on the doubling time of the specific cell line. The test substances were then added at fivefold, tenfold dilutions (0.01 to 100 µM), freshly prepared in the growth medium on the day of testing, and incubated for a further 72 h. After 72 h of incubation, the growth rate of the cells was determined using the MTT assay according to the manufacturer’s guidelines. […] The IC50 values were calculated from the dose–response curves using linear regression analysis. The experiment was performed in tetraplicates in two individual experiments.
Newly synthesized compounds were evaluated for their cytotoxic activity in vitro against four human cancer cell lines, including human breast adenocarcinoma (MCF-7), ductal pancreatic adenocarcinoma (CFPAC-1), colorectal carcinoma (HT-29), and hepatocellular carcinoma (HepG2), as well as on non-cancerous skin fibroblasts (HFF-1), to check for non-specific toxicity. Furthermore, 5-Fluorouracil (5-FU) was used as a reference drug. The results are expressed as 50% inhibitory concentration (IC50) values and are listed in Table 2, Table 3, Table 4 and Table 5.

Data set [8] has as its system MDCKII-MDR1 cells (P-glycoprotein). Put plainly: MDCKII-MDR1 permeability assay. Format: in vitro ADME, canine cells with over-expressed human MDR1 gene. The conditions noted are these: permeability class. The protocol:
(§2) MDCKII-hMDR1 cells were obtained from Solvo Biotechnology, Hungary. DMEM, fetal bovine serum, Glutamax-100, Antibiotic/Antimycotic, DMSO, Dulbecco’s phosphate-buffered saline, and MEM Non-essential amino acids were purchased from Sigma (St. Louis, MO, USA). Bi-directional permeability and P-glycoprotein substrate assessments were carried out in Madin-Darby canine epithelial cells with the over-expressed human MDR1 gene (MDCKII-MDR1), coding for P-glycoprotein. Experimental procedures, as well as cell culture conditions, were the same as previously described. Briefly, compounds (10 µM, 1% DMSO v/v) in duplicate were incubated at 37 °C for 60 min with cell monolayer on 24-well Millicell inserts (Millipore, Burlington, MA, USA) with and without the P-glycoprotein inhibitor Elacridar (2 µM, International Laboratory, San Francisco, CA, USA). The inhibition of P-glycoprotein was verified by amprenavir (Moravek Biochemicals Inc, Brea, CA, USA) and monolayer integrity using Lucifer yellow (Sigma, St. Louis, MO, USA). LC-MS/MS measured compound concentrations and Lucifer yellow was measured on an Infinite F500 (Tecan, Männedorf, CH, Switzerland) using excitation of 485 nm and emission of 530 nm.
(§3) All samples were quantified using tandem mass spectrometry coupled to liquid chromatography. Samples were analyzed on a Sciex API4000 Triple Quadrupole Mass Spectrometer (Sciex, Division of MDS Inc., Toronto, Canada) coupled to a Shimadzu Nexera X2 UHPLC frontend (Kyoto, Japan). Samples were injected onto a UHPLC column (HALO2 C18, 2.1 × 20 mm, 2 µm or Luna Omega 1.6 µm Polar C18 100A, 30 × 2.1 mm) and eluted with a gradient at 50 °C. The mobile phase was composed of acetonitrile/water mixture (9/1, with 0.1% formic acid) and 0.1% formic acid in deionized water. The flow rate was 0.7 mL/min under gradient conditions, leading to a total run time of 1.5–2 min. A positive ion mode with turbo spray, an ion source temperature of 550 °C, and a dwell time of 150 ms were utilized for mass spectrometric detection. Quantitation was performed using multiple reaction monitoring (MRM) at the specific transitions for each compound.

Data set [9] has as its system P-glycoprotein (human MDR1). Put plainly: MDCKII-MDR1 permeability assay. The data set is classed as in vitro ADME, canine cells with over-expressed human MDR1 gene. The conditions noted are these: dog, MDCK-MDR1. The protocol:
as §2, §3

The nature of data set [10]: Hydrolytic stability in aqueous buffer (UV/Vis). The data set is classed as physicochemical. To be noted: phosphate buffer/DMSO 99:1, pH 7.4, 1 × 10⁻⁴ mol dm⁻³, UV/Vis spectra over 24 h. An excerpt:
Solvents and chemicals, including starting purines and purine bioisosters 1–5, as well as para-substituted 2-phenyloxiranes 11–15 and phenacyl bromide 21–25, were purchased from Sigma-Aldrich (St. Louis, MO, USA), Alfa Aesar (Haverhill, MA, USA), and Fisher Scientific International (Pittsburgh, PA, USA). The progress of all reactions was monitored by thin layer chromatography on pre-coated Merck (Darmstadt, Germany) silica gel plates 60F254. The synthesized compounds were purified via column chromatography using Fluka (Buchs, Switzerland) silica gel (0.063−0.2 mm) and the appropriate solvent. All NMR spectra were recorded using a Bruker 300, 400, and 600 MHz NMR spectrometer (Bruker Biospin, Rheinstetten, Germany) in deuterated DMSO solutions, with TMS as the internal standard. The melting points of all newly synthesized compounds were determined using a Koffler (Reichert, Vienna) hot stage microscope. The ^1H (δ/ppm) and ^13C NMR (δ/ppm) spectra of compounds 26a,b–49a,b can be found in the Supporting Information (Figures S1–S48). The purity of all newly synthesized compounds was determined by elemental analysis and the elemental analysis results are within 0.5% of the theoretical values. The UV/Vis absorption spectra of compounds 40a, 45a, and 49b were measured at a concentration of 1 × 10⁻⁴ mol dm⁻³ in phosphate buffer and DMSO (99:1, v/v) at pH 7.4 using a Varian Cary 50 spectrophotometer in double-beam mode at 25 °C.
Selected 6-chloropurine (40a), 4-chloropyrrolo[2,3-d]pyrimidine (45a), and 4-chloroimidazo[4,5-c]pyridine (49b) with significant antiproliferative activity were examined for hydrolytic stability in an aqueous buffer solution.
2. UV/Vis absorption spectra of selected compounds
Figure S49. UV/Vis absorption spectra of compounds 40a (a), 45a (b), and 49b (c) recorded in phosphate buffer with 1% DMSO (99:1, v/v) at pH 7.4 (c = 1 × 10⁻⁴ mol dm⁻³). Spectra were measured immediately after sample preparation and after 24 hours to evaluate spectral stability over time.
(1 picture or pasted object on this page, not shown here)

As usually defined, the IC50 is the concentration that gives 50% inhibition. `FC(F)(F)c1ccc(-n2cc(Cn3cnc4c(Cl)ncnc43)nn2)cc1`: in [1], the IC50 is 750 nM.

`OCC(c1ccccc1)n1cc(Cn2ccc3ccccc32)nn1` (stereo not drawn) [Compound 26a, 1-((1-(2-Hydroxy-1-phenylethyl)-1H-1,2,3-triazol-4-yl)methyl)-1H-indole]: the IC50 in [2], in [3], in data set [4], in data set [5] and in [6] was > 100 µM in each case. In addition, the “antiproliferative activity (in words)” value in data set [7] is reported as “deprived of any activity”.

For the molecule `OC(Cn1cc(Cn2ccc3ccccc32)nn1)c1ccccc1` (stereo not drawn) [Compound 26b, 1-((1-(2-Hydroxy-2-phenylethyl)-1H-1,2,3-triazol-4-yl)methyl)-1H-indole], the IC50 in [2], in data set [3], in data set [4], in data set [5] and in data set [6] was > 100 µM each time. Moreover, in data set [7], the “antiproliferative activity (in words)” value is “deprived of any activity”.

For `OCC(c1ccccc1)n1cc(Cn2cnc3ccccc32)nn1` (stereo not drawn) [Compound 31a, 1-((1-(2-Hydroxy-1-phenylethyl)-1H-1,2,3-triazol-4-yl)methyl)-1H-benzimidazole], the IC50 in data set [2], in data set [3], in data set [4], in data set [5] and in [6] was > 100 µM each time. Moreover, in data set [7], the “antiproliferative activity (in words)” value is listed as “deprived of any activity”.

For the molecule `OC(Cn1cc(Cn2cnc3ccccc32)nn1)c1ccccc1` (stereo not drawn) [Compound 31b, 1-((1-(2-Hydroxy-2-phenylethyl)-1H-1,2,3-triazol-4-yl)methyl)-1H-benzimidazole], the IC50 was 91 ± 7.2 µM in data set [2]; > 100 µM in data set [3]; > 100 µM in [4]; > 100 µM in data set [5]; > 100 µM in data set [6]. Also, the “antiproliferative activity (in words)” value in [7] is recorded as “deprived of any activity”.

As usually defined, the Papp A→B is the apparent permeability from the apical to the basolateral side of a cell layer. The Papp B→A is the apparent permeability from the basolateral to the apical side of a cell layer. The term efflux ratio denotes the permeability from basolateral to apical divided by that in the opposite direction, in the common usage. On to `OCC(c1ccc(C(F)(F)F)cc1)n1cc(Cn2cnc3c(Cl)ncnc32)nn1` (stereo not drawn) [Compound 40a, 6-Chloro-9-((1-(2-hydroxy-1-(4-(trifluoromethyl)phenyl)ethyl)-1H-1,2,3-triazol-4-yl)methyl)-9H-purine], for which the IC50 was found to be 19 ± 4.3 µM in data set [2], 0.69 ± 0.01 µM in [4] and 18 ± 0.6 µM in data set [6]. Besides, the “SI (HT-29)” value in data set [4] (SI = [IC50 HFF]/[IC50 HT-29]) was 26.1. The “SI (HepG2)” value in [5] (SI = [IC50 HFF]/[IC50 HepG2]) is 28.1. Also, the “antiproliferative activity (in words)” value in data set [7] is “submicromolar antiproliferative activity”. In addition, the Permeability entry in data set [8] is on record as “MODERATE”. Besides, the Papp A→B at 60 min, 10 µM in data set [9] (10 µM, 60 min, 37 °C) amounted to 2.1 ×10⁻⁶ cm/s. In data set [9] (10 µM, 60 min, 37 °C), the Papp B→A at 60 min, 10 µM was 60.6 ×10⁻⁶ cm/s. Also, in [9] (<2 no efflux, >2 active efflux), the efflux ratio at 60 min, 10 µM stood at 29.5. Further, in [10], the hydrolytic stability result is “hydrolytically stable”.

Consider `OCC(c1ccccc1)n1cc(Cn2cnc3c(Cl)nccc32)nn1` (stereo not drawn) [Compound 46a, 4-Chloro-1-((1-(2-hydroxy-1-phenylethyl)-1H-1,2,3-triazol-4-yl)methyl)-1H-imidazo[4,5-c]pyridine], for which the IC50 in data set [2], in [3], in data set [4], in [5] and in data set [6] was > 100 µM throughout. Besides, in data set [7], the “antiproliferative activity (in words)” value was “deprived of any activity”.

`OC(Cn1cc(Cn2cnc3c(Cl)nccc32)nn1)c1ccccc1` (stereo not drawn) [Compound 46b, 4-Chloro-1-((1-(2-hydroxy-2-phenylethyl)-1H-1,2,3-triazol-4-yl)methyl)-1H-imidazo[4,5-c]pyridine]: the IC50 in data set [2], in data set [3], in data set [4], in [5] and in data set [6] was > 100 µM in each case. Besides, in data set [7], the “antiproliferative activity (in words)” value is recorded as “deprived of any activity”.
